Target: T1, OleD P67T/S132F/A242V (Streptomyces antibioticus, UniProt Q53685, A242V/P67T/S132F)
T1 construct: made in house; host or cells: E. coli (site-directed mutant of pET28/OleD)
Format: biochemical
Protocol: Kinetic parameters kcat and Km were determined with both 4-Me-umb FIG. 1: 4 and UPDG as variable substrates using assay conditions as described above. […] Each experiment was performed in triplicate. Initial velocities were fitted to the Michaelis-Menten equation using Sigma Plot.
Enzyme assays were carried out in a total volume of 500 μl 50 mM Tris-HCl (pH 8.0) containing 5 mM MgCl2, and 50 μg pure enzyme. Kinetic parameters kcat and Km were determined with both 4-Me-umb FIG. 1: 4 and UPDG (FIG. 3: 2) as variable substrates. […] Each experiment was performed in triplicate. Initial velocities were fitted to the Michaelis-Menten equation using Sigma Plot.

T1 sequence (Q53685 other isoform, or with tags, fused parts or gaps P55A/P67T/R82V/R83E/T84P/S132F/A242V): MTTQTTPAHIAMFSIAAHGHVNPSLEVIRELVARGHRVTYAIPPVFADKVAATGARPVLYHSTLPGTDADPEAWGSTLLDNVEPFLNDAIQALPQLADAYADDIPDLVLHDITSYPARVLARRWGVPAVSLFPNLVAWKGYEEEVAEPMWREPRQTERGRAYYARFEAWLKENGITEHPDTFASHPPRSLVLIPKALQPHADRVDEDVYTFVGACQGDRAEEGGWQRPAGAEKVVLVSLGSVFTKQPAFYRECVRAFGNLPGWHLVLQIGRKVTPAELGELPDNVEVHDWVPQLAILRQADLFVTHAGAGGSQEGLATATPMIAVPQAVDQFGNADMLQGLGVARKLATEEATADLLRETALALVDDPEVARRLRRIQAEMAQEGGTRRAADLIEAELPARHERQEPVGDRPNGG

Cc1cc(=O)oc2cc(O)ccc12 [4-Me-umb (4), 7-hydroxy-4-methylcoumarin]
kcat (acceptor 4 varied): 0.0247 s⁻¹ | efficiency of glucosylation compared to the WT enzyme (kcat/Km, unnatural acceptor 4-methyl-umbelliferone): ~60 fold | Km (read-out: apparent Km, named substrate varied, other substrate fixed): 140 µM
